Source: US9487489B2, “Halogen-substituted pyrazole derivatives as pest-control agents” (BAYER CROPSCIENCE AKTIENGESELLSCHAFT, priority 2013, dated 2016)

Experiments:
[1] = test system: caterpillars of the armyworm (Spodoptera frugiperda); assay: Spodoptera frugiperda spray test (SPODFR); assay type: in vivo; conditions: maize leaf discs, after 7 days
Procedure: I. Spodoptera frugiperda-spray Test (SPODFR)
(§1) Solvent: 78.0 parts by weight of acetone
(§2) • 1.5 parts by weight of dimethylformamide Emulsifier: alkylaryl polyglycol ether
(§3) To produce a suitable preparation of active compound, 1 part by weight of active compound is dissolved using the stated parts by weight of solvent and made up with water comprising an emulsifier concentration of 1000 ppm until the desired concentration is reached. To produce further test concentrations, the preparation is diluted with emulsifier-containing water.
Leaf discs of maize (Zea mays) are sprayed with an active compound preparation of the desired concentration and, after drying, populated with caterpillars of the armyworm (Spodoptera frugiperda).
After 7 days, the efficacy in % is determined. 100% means that all of the caterpillars have been killed; 0% means that none of the caterpillars have been killed.

[2] = test system: larvae of the mustard beetle (Phaedon cochleariae); assay: Phaedon cochleariae spray test (PHAECO); assay type: in vivo; conditions: Chinese cabbage leaf discs, after 7 days
Procedure: H. Phaedon cochleariae-spray Test (PHAECO)
Solvents: 78.0 parts by weight of acetone
as §2, §3
After 7 days, the efficacy in % is determined. 100% means that all of the beetle larvae have been killed; 0% means that none of the beetle larvae have been killed.

[3] = test system: greenhouse red spider mite (Tetranychus urticae); assay: Tetranychus urticae spray test, OP-resistant (TETRUR); assay type: in vivo; conditions: bean leaf discs, after 6 days
Procedure: J. Tetranychus urticae-spray Test, OP-Resistant (TETRUR)
as §1, §2, §3
Discs of bean leaves (Phaseolus vulgaris) which are infested by all stages of the greenhouse red spider mite (Tetranychus urticae) are sprayed with an active compound preparation of the desired concentration.
After 6 days, the efficacy in % is determined. 100% means that all of the spider mites have been killed; 0% means that none of the spider mites have been killed.

[4] = logP determination by HPLC on a reversed-phase column (C18), EEC Directive 79/831 Annex V.A8; assay type: physicochemical; conditions: HPLC on reversed-phase column (C18), acetonitrile/water with formic acid, EEC Directive 79/831 Annex V.A8
Procedure: (§4) ^a) Note regarding the determination of the logP values and mass detection: The determination of the given logP values was carried out in accordance with EEC Directive 79/831 Annex V.A8 by HPLC (High Performance Liquid Chromatography) on a reversed-phase column (C18). Agilent 1100 LC system; 50*4.6 Zorbax Eclipse Plus C18 1.8 micron; mobile phase A: acetonitrile (0.1% formic acid); mobile phase B: water (0.09% formic acid); linear gradient from 10% acetonitrile to 95% acetonitrile in 4.25 min, then 95% acetonitrile for a further 1.25 min; oven temperature 55° C.; flow rate: 2.0 ml/min. Mass detection is carried out via an Agilend MSD system.
as §4, with “^*)” for “^a)”

[5] = test system: adult cat fleas (Ctenocephalides felis); assay: Ctenocephalides felis in vitro contact test with adult cat fleas (T1); conditions: after 48 h
Procedure: T1. Ctenocephalides felis—in vitro Contact Tests with Adult Cat Fleas
(§5) For the coating of the test tubes, initially 9 mg of active compound are dissolved in 1 ml of acetone p.a. and then diluted with acetone p.a. to the desired concentration. By turning and rocking on an orbital shaker (2 h of rocking rotation at 30 rpm), 250 μl of the solution are distributed homogeneously on the internal walls and the floor of a 25 ml test tube. At 900 ppm active compound solution and 44.7 cm^2 internal surface, an area dose of 5 μg/cm^2 is achieved for homogeneous distribution.
After evaporation of the solvent, the tubes are populated with 5-10 adult cat fleas (Ctenocephalides felis), sealed with a perforated plastic lid and incubated in a horizontal position at room temperature and ambient humidity. After 48 h, the efficacy is determined. To this end, the test tubes are stood upright and the fleas are knocked to the floor of the tube. Fleas which remain motionless on the floor or move in an uncoordinated manner are considered to be dead or moribund.
An efficacy of 100% means that all fleas were dead or moribund. 0% efficacy means that none of the fleas had been damaged.

[6] = test system: adult dog ticks (Rhipicephalus sanguineus); assay: Rhipicephalus sanguineus in vitro contact test with adult brown dog ticks (T2); conditions: after 48 h
Procedure: T2. Rhipicephalus sanguineus-in vitro Contact Tests with Adult Brown Dog Ticks
as §5
After evaporation of the solvent, the tubes are populated with 5-10 adult dog ticks (Rhipicephalus sanguineus), sealed with a perforated plastic lid and incubated in a horizontal position in the dark at room temperature and ambient humidity. After 48 h, the efficacy is determined. To this end, the ticks are knocked to the floor of the tube and incubated on a hotplate at 45-50° C. for at most 5 min Ticks which remain motionless on the floor or move in an uncoordinated manner such that they are not able to deliberately avoid the heat by climbing upwards are considered to be dead or moribund.
An efficacy of 100% means that all ticks were dead or moribund. 0% efficacy means that none of the ticks had been damaged.

| Compound | efficacy in % ([1]; application rate 500 g/ha) [%] | efficacy in % ([2]; application rate 500 g/ha) [%] | efficacy in % ([3]; application rate 500 g/ha) [%] | logP [4] | efficacy in % ([1]; application rate 100 g/ha) [%] | efficacy in % ([2]; application rate 100 g/ha) [%] | efficacy in % ([3]; application rate 100 g/ha) [%] | also measured |
| --- | --- | --- | --- | --- | --- | --- | --- | --- |
| CC#CC(C)NC(=O)c1cc(-c2cnn(-c3c(C(F)(F)F)c(C(F)(F)C(F)(F)F)nn3C)c2)ccc1Cl (centres unmarked) [Ic-198] | 100 | 100 | 100 | 4.27 |  |  |  |  |
| Cn1nc(C(F)(F)C(F)(F)F)c(C(F)(F)F)c1-n1cc(-c2cc(C(=O)NC3CC3)cc3c2OC(F)(F)O3)cn1 [Ic-171] | 100 | 100 | 90 |  |  |  |  |  |
| Cn1nc(C(F)(F)F)c(CO)c1-n1cc(-c2ccc(Cl)c(C(=O)NC3CC3)c2)cn1 [Ic-69] |  | 83 | 90 | 2.15 |  |  |  |  |
| Cc1cc(NC(=O)c2cc(-c3cnn(-c4c(C(F)(F)F)c(C(F)(F)C(F)(F)F)nn4C)c3)ccc2Cl)no1 [Ic-148] |  |  |  |  |  |  |  | efficacy (dead or moribund fleas) ([5]; application rate 5 μg/cm^2): 100%; efficacy (dead or moribund ticks) ([6]; application rate 1 μg/cm^2): 80% |
| Cn1nc(C(F)(F)F)c(C(F)(F)F)c1-n1cc(-c2ccc(Cl)c(C(=O)NCC(F)(F)F)c2)cn1 [Ic-169] |  |  |  | 3.71 | 100 | 100 | 100 |  |
| Cn1nc(C(F)(F)C(F)(F)F)c(C(F)(F)F)c1-n1cc(-c2ccc([S+](C)[O-])c(C(=O)NC3CC3)c2)cn1 (centres unmarked) [Ic-189] |  |  |  | 3.19 |  | 100 | 100 |  |
| CCOC1C(C)C1NC(=O)c1cc(-c2cnn(-c3c(C(F)(F)F)c(C(F)(F)C(F)(F)F)nn3C)c2)ccc1Cl (centres unmarked) [Ic-183] | 100 | 100 | 100 | 4.34 |  |  |  |  |
| C#CC(C)NC(=O)c1cc(-c2cnn(-c3c(C(F)(F)F)c(C(F)(F)C(F)(F)F)nn3C)c2)ccc1Cl (centres unmarked) [Ic-193] | 100 | 100 | 100 | 3.97 |  |  |  |  |
| Cn1nc(C(F)(F)C(F)(F)F)c(C(F)(F)F)c1-n1cc(-c2ccc(Cl)c(C(=O)NC3(C#N)CSC3)c2)cn1 [Ic-128] |  |  |  | 4.38 | 100 | 100 | 100 |  |
| Cn1nc(C(F)(F)F)c(C(F)(F)F)c1-n1cc(-c2ccc(Cl)c(C(=O)NCCF)c2)cn1 [Ic-168] |  |  |  | 3.24 | 83 | 100 | 100 |  |
| Cn1nc(C(F)(F)F)c(C(F)(F)F)c1-n1cc(-c2ccc(Cl)c(C(=O)NC3CC3F)c2)cn1 (centres unmarked) [Ic-177] |  |  |  | 3.41 | 100 | 100 | 100 |  |
| Cn1nc(C(F)(F)C(F)(F)F)c(C(F)(F)F)c1-n1cc(-c2ccc(Cl)c(C(=O)NC3CC3(Cl)Cl)c2)cn1 (centres unmarked) [Ic-184] | 100 | 100 | 100 | 4.34 |  |  |  |  |
| Cn1nc(C(F)(F)F)c(CO)c1-n1cc(-c2ccc(Cl)c(C(=O)NC3(C#N)CC3)c2)cn1 [Ic-104] |  |  |  | 2.13 |  | 100 | 100 |  |
| CONC(=O)c1cc(-c2cnn(-c3c(C(F)(F)F)c(C(F)(F)C(F)(F)F)nn3C)c2)ccc1Cl [Ic-155] |  |  |  |  |  |  |  | efficacy (dead or moribund fleas) ([5]; application rate 1 μg/cm^2): 100%; efficacy (dead or moribund fleas) ([5]; application rate 5 μg/cm^2): 100%; efficacy (dead or moribund ticks) ([6]; application rate 1 μg/cm^2): 100%; efficacy (dead or moribund ticks) ([6]; application rate 5 μg/cm^2): 100% |
| CSC1CCC1NC(=O)c1cc(-c2cnn(-c3c(C(F)(F)F)c(C(F)(F)C(F)(F)F)nn3C)c2)ccc1Cl (centres unmarked) [Ic-119] |  |  |  | 4.52 | 83 | 100 | 100 |  |
| Cn1nc(C(F)(F)F)c(C(F)(F)F)c1-n1cc(-c2ccc(Cl)c(C(=O)NCC(F)F)c2)cn1 [Ic-170] |  |  |  | 3.43 | 100 | 100 | 100 |  |
| Cc1ccc(-c2cnn(-c3c(C(F)(F)F)c(C(F)(F)C(F)(F)F)nn3C)c2)cc1C(=O)Nc1ccc(F)cc1 [Ic-131] |  |  |  | 4.57 | 100 | 100 | 100 |  |
| Cn1nc(C(F)(F)C(F)(F)F)c(C(F)(F)F)c1-n1cc(-c2ccc(Cl)c(C(=O)NC3(C#N)CC3)c2F)cn1 [Ic-107] | 100 | 100 | 100 |  |  |  |  | efficacy (dead or moribund fleas) ([5]; application rate 1 μg/cm^2): 100%; efficacy (dead or moribund fleas) ([5]; application rate 5 μg/cm^2): 100% |
| Cn1nc(C(F)(F)C(F)(F)F)c(C(F)(F)F)c1-n1cc(-c2ccc(Cl)c(C(=O)NC3CCC3[S+](C)[O-])c2)cn1 (centres unmarked) [Ic-125] |  |  |  | 3.17 | 83 | 100 | 100 |  |
| Cn1nc(C(F)(F)C(F)(F)F)c(C(F)(F)F)c1-n1cc(-c2ccc(Cl)c(C(=O)NC3CCC3S(C)(=O)=O)c2)cn1 (centres unmarked) [Ic-124] |  |  |  | 3.47 | 100 | 100 | 100 |  |
| Cn1nc(C(F)(F)C(F)(F)F)c(C(F)(F)F)c1-n1cc(-c2cccc(C(=O)NC3(C#N)CC3)n2)cn1 [Ic-105] | 100 | 100 | 90 |  |  |  |  |  |
| Cn1nc(C(F)(F)F)c(C(F)(F)F)c1-n1cc(-c2ccc(Cl)c(C(=O)Nc3ccccc3)c2)cn1 [Ic-135] |  |  |  | 4.1 | 100 | 83 | 100 |  |
| Cn1nc(C(F)(F)C(F)(F)F)c(C(F)(F)F)c1-n1cc(-c2cc(C(=O)NC3CC3)c(F)c(F)c2F)cn1 [Ic-201] |  |  |  |  |  |  |  | efficacy (dead or moribund ticks) ([6]; application rate 1 μg/cm^2): 100%; efficacy (dead or moribund ticks) ([6]; application rate 5 μg/cm^2): 100% |
| Cn1nc(C(F)(F)C(F)(F)F)c(C(F)(F)F)c1-n1cc(-c2ccc(Cl)c(C(=O)NC3(C)CC3)c2)cn1 [Ic-200] | 100 | 100 | 100 | 4.12 |  |  |  |  |
| CCOC1(NC(=O)c2cc(-c3cnn(-c4c(C(F)(F)F)c(C(F)(F)C(F)(F)F)nn4C)c3)ccc2Cl)CC1 [Ic-176] | 100 | 100 | 100 | 4.08 |  |  |  |  |
| CC(NC(=O)c1cc(-c2cnn(-c3c(C(F)(F)F)c(C(F)(F)C(F)(F)F)nn3C)c2)ccc1Cl)C(F)(F)F (centres unmarked) [Ic-110] |  |  |  | 4.23 | 100 | 100 | 100 | efficacy (dead or moribund fleas) ([5]; application rate 5 μg/cm^2): 100% |
| Cn1nc(C(F)(F)C(F)(F)F)c(C(F)(F)F)c1-n1cc(-c2ccc(Cl)c(C(=O)NC3CCC3C[S+](C)[O-])c2)cn1 (centres unmarked) [Ic-123] |  |  |  | 3.09 |  |  | 100 |  |
| Cc1nn(-c2c(C(F)(F)F)c(C(F)(F)C(F)(F)F)nn2C)c(C)c1-c1ccc(Cl)c(C(=O)NC2CC2)c1 [Ic-9] |  |  |  | 4.02 |  |  | 90 |  |
